# Counter-ions that a name gives are not always drawn.
# Columns and labels:
# Format in all cases: physicochemical
# [1] = Thermal stability, heating up to 100° C. (XRPD); settings: heating up to 100° C. for 30 minutes
# Experimental: X-ray diffraction was performed on X-Ray powder diffractometer: Bruker D8 Advance; CuKα radiation (λ=1.5418 Å); Lynx eye detector; laboratory temperature 22-25° C.; PMMA specimen holder ring with silicon low background. Prior to analysis, the samples were gently ground by means of mortar and pestle in order to obtain a fine powder. The ground sample was adjusted into a cavity of the sample holder and the surface of the sample was smoothed by means of a cover glass. • Scan range: 2-40 degrees 2-theta; • Scan mode: continuous; • Step size: 0.05 degrees; • Time per step: 0.5 s; • Sample spin: 30 rpm; • Sample holder: PMMA specimen holder ring with silicon low background. Samples of Nirogacestat dihydrobromide Form NT1 and Nirogacestat hydrobromide Form NHBr1 were subjected to heating up to 100° C. for 30 minutes. XRPD analysis of the sample confirmed there to be no change in the starting material (Table 4): […]
# [2] = Grinding experiments (strong grinding, solvent drop grinding; XRPD); settings: for XRPD analysis results, strong grinding: about 20 mg ground with a pestle for 2 minutes, sample alone; for Stability to solvent drop grinding: isopropanol or no solvent
# Experimental: X-ray diffraction was performed on X-Ray powder diffractometer: Bruker D8 Advance; CuKα radiation (λ=1.5418 Å); Lynx eye detector; laboratory temperature 22-25° C.; PMMA specimen holder ring with silicon low background. Prior to analysis, the samples were gently ground by means of mortar and pestle in order to obtain a fine powder. The ground sample was adjusted into a cavity of the sample holder and the surface of the sample was smoothed by means of a cover glass. • Scan range: 2-40 degrees 2-theta; • Scan mode: continuous; • Step size: 0.05 degrees; • Time per step: 0.5 s; • Sample spin: 30 rpm; • Sample holder: PMMA specimen holder ring with silicon low background. […] […] In these experiments, about 20 mg of the sample is placed in a mortar and ground with a pestle for 2 minutes. The solvent, when used, was added to the crystalline material before grinding, in a volume of 10 microlitres. XRPD analysis performed on the sample after the grinding experiment, confirmed no change in the starting material (Table 3):
# [3] = Storage stability at different relative humidities, ambient temperature, 7 days (XRPD)
# Experimental: (§1) X-ray diffraction was performed on X-Ray powder diffractometer: Bruker D8 Advance; CuKα radiation (λ=1.5418 Å); Lynx eye detector; laboratory temperature 22-25° C.; PMMA specimen holder ring with silicon low background. Prior to analysis, the samples were gently ground by means of mortar and pestle in order to obtain a fine powder. The ground sample was adjusted into a cavity of the sample holder and the surface of the sample was smoothed by means of a cover glass. • Scan range: 2-40 degrees 2-theta; • Scan mode: continuous; • Step size: 0.05 degrees; • Time per step: 0.5 s; • Sample spin: 30 rpm; • Sample holder: PMMA specimen holder ring with silicon low background. Samples of Nirogacestat dihydrobromide Form NT1 and Nirogacestat hydrobromide Form NHBr1 were subjected to conditions of different relative humidity at ambient temperature. XRPD analysis was performed on the samples after 7 days.
# [4] = Storage stability at different relative humidity and temperatures, 6 months (XRPD); settings: for XRPD analysis results, 25° C., 60% RH / XRPD analysis results, 40° C., 75% RH: 6 months
# Experimental: as §1, with “NT1” for “NT1 and Nirogacestat hydrobromide Form NHBr1”, “different temperatures.” for “ambient temperature.”, “6 months.” for “7 days.”
# [5] = Stability under pressure of 2 tons
# [6] = listed as Form NHBr1 of Nirogacestat hydrobromide, hydrobromide salt
# [7] = listed as Nirogacestat hydrobromide Form NHBr1, hydrobromide salt
# [8] = listed as Form NT1, dihydrobromide salt
# [9] = listed as Nirogacestat dihydrobromide Form NT1, dihydrobromide salt
# [10] = listed as Form NT1 of Nirogacestat dihydrobromide, dihydrobromide salt
# [11] = listed as Nirogacestat dihydrobromide form NT1, dihydrobromide salt
smiles,measurement,setting,value
CCC[C@H](N[C@H]1CCc2cc(F)cc(F)c2C1)C(=O)Nc1cn(C(C)(C)CNCC(C)(C)C)cn1 [Nirogacestat hydrobromide salt],"Result, heating 100° C., 30 minutes",[1]; hydrobromide salt,Stable
same,"Result, heating 100° C., 30 minutes",[1]; [6],stable
same,"Result, heating 100° C., 30 minutes",[1]; [7],no change
same,"XRPD analysis results, strong grinding",[2]; hydrobromide salt,No change
same,"XRPD analysis results, strong grinding",[2]; [6],stable
same,"XRPD analysis results, strong grinding",[2]; [7],no change
same,Stability to solvent drop grinding,[2]; [7],no change
CCC[C@H](N[C@H]1CCc2cc(F)cc(F)c2C1)C(=O)Nc1cn(C(C)(C)CNCC(C)(C)C)cn1 [Nirogacestat dihydrobromide salt],"XRPD analysis results, relative humidity 20%","[3]; 20% RH, ambient temperature, 7 days, listed as Form NT1, dihydrobromide salt",stable
same,"XRPD analysis results, relative humidity 40%","[3]; 40% RH, ambient temperature, 7 days, listed as Form NT1, dihydrobromide salt",stable
same,"XRPD analysis results, relative humidity 60%","[3]; 60% RH, ambient temperature, 7 days, listed as Form NT1, dihydrobromide salt",stable
same,"XRPD analysis results, relative humidity 80%","[3]; 80% RH, ambient temperature, 7 days, listed as Form NT1, dihydrobromide salt",stable
same,Stability after exposure to high and low relative humidity,"[3]; at least 7 days, summary of Table 1",stable
same,"XRPD analysis results, 25° C., 60% RH",[4]; [8],stable
same,"XRPD analysis results, 25° C., 60% RH",[4]; [9],No change
same,"XRPD analysis results, 40° C., 75% RH",[4]; [8],stable
same,"XRPD analysis results, 40° C., 75% RH",[4]; [9],No change
same,Stability after exposure to high and low relative humidity at different temperatures,"[4]; at least 6 months, summary of Table 2",stable
same,"Result, heating 100° C., 30 minutes",[1]; dihydrobromide salt,Stable
same,"Result, heating 100° C., 30 minutes",[1]; [10],stable
same,"Result, heating 100° C., 30 minutes",[1]; [9],no change
same,"Result, heating 100° C., 30 minutes",[1]; [11],stable
same,Stability under pressure,[5],stable
same,"XRPD analysis results, strong grinding",[2]; dihydrobromide salt,No change
same,"XRPD analysis results, strong grinding",[2]; [10],stable
same,"XRPD analysis results, strong grinding",[2]; [9],no change
same,"XRPD analysis results, strong grinding",[2]; [11],stable
same,"XRPD analysis results, solvent-drop grinding (ethanol)","[2]; ground 2 minutes, 10 microlitres solvent, ethanol",No change
same,"XRPD analysis results, solvent-drop grinding (water)","[2]; ground 2 minutes, 10 microlitres solvent, water",No change
same,Stability to solvent drop grinding,[2]; [9],no change
same,Stability to solvent drop grinding,[2]; [11],stable
same,Resistance to polymorphic changes on grinding,[2]; summary of Table 3,resistant to polymorphic changes

# Reference: US20240408067A1, “SOLID STATE FORMS OF NIROGACESTAT SALTS” (TEVA PHARMACEUTICALS INTERNATIONAL GMBH, priority 2021, published 2024)
